Measurements taken from the NIST ThermoML archive (doi:10.1021/je200787v).
Several values for one entry are separate records, joined by “and”; a condition that tells them apart may be missing. Equal values may be shown once. ± gives the expanded uncertainty stated by the source.

Assays:
[1] = Liquid
[2] = xn = mol fraction of the nth substance listed; conditions: Liquid; for viscosity: Falling or rolling sphere viscometry; for mass density: Vibrating tube method

**Q.** Which mass density ([1]; 323.1 K) does the source give for `CCCCCCCCCCCCCCCCCC` [octadecane] here?
**A.** 757 ± 4 kg/m3 [middle of 4 runs]

**Q.** And the mass density ([1]; 323.3 K)?
**A.** 756 ± 4 kg/m3 and 757 ± 4 kg/m3

**Q.** And the mass density ([1]; 372.8 K)?
**A.** 734 ± 5 kg/m3 [middle of 6 runs]

**Q.** And the mass density ([1]; 422.5 K)?
**A.** 703 ± 5 kg/m3 and 704 ± 5 kg/m3

**Q.** What about the mass density ([1]; 422.6 K) of the same molecule?
**A.** 700 ± 5 kg/m3 [middle of 6 runs]

**Q.** Which results are given for `CCCCCCCCCCCCCCCCCC` [octadecane] + CC?
**A.** viscosity ([2]; 323.1 K, x2 = 0.27): 1.59 ± 0.16 mPa·s; viscosity ([2]; 323.1 K, x2 = 0.415): 1.09 ± 0.11 mPa·s; viscosity ([2]; 323.1 K, x2 = 0.789): 0.31 ± 0.03 mPa·s; viscosity ([2]; 323.1 K, x2 = 0.844): 0.23 ± 0.02 mPa·s; mass density ([2]; 323.1 K, x2 = 0.27): 732 ± 2 kg/m3; mass density ([2]; 323.1 K, x2 = 0.415): 715 ± 2 kg/m3; mass density ([2]; 323.1 K, x2 = 0.789): 606 ± 2 kg/m3; mass density ([2]; 323.1 K, x2 = 0.844): 572 ± 2 kg/m3; viscosity ([2]; 323.3 K, x2 = 0.546): 0.81 ± 0.08 mPa·s; viscosity ([2]; 323.3 K, x2 = 0.654): 0.55 ± 0.06 mPa·s; mass density ([2]; 323.3 K, x2 = 0.546): 691 ± 2 kg/m3; mass density ([2]; 323.3 K, x2 = 0.654): 662 ± 2 kg/m3; viscosity ([2]; 372.8 K, x2 = 0.127): 0.87 ± 0.09 mPa·s; viscosity ([2]; 372.8 K, x2 = 0.298): 0.7 ± 0.07 mPa·s; viscosity ([2]; 372.8 K, x2 = 0.372): 0.62 ± 0.06 mPa·s; viscosity ([2]; 372.8 K, x2 = 0.474): 0.52 ± 0.05 mPa·s; viscosity ([2]; 372.8 K, x2 = 0.536): 0.46 ± 0.05 mPa·s; viscosity ([2]; 372.8 K, x2 = 0.599): 0.39 ± 0.04 mPa·s; viscosity ([2]; 372.8 K, x2 = 0.666): 0.32 ± 0.03 mPa·s; viscosity ([2]; 372.8 K, x2 = 0.701): 0.29 ± 0.03 mPa·s; mass density ([2]; 372.8 K, x2 = 0.127): 719 ± 2 kg/m3; mass density ([2]; 372.8 K, x2 = 0.298): 703 ± 2 kg/m3; mass density ([2]; 372.8 K, x2 = 0.372): 692 ± 2 kg/m3; mass density ([2]; 372.8 K, x2 = 0.474): 676 ± 2 kg/m3; mass density ([2]; 372.8 K, x2 = 0.536): 664 ± 2 kg/m3; mass density ([2]; 372.8 K, x2 = 0.599): 648 ± 2 kg/m3; mass density ([2]; 372.8 K, x2 = 0.666): 628 ± 2 kg/m3; mass density ([2]; 372.8 K, x2 = 0.701): 614 ± 2 kg/m3; viscosity ([2]; 422.5 K, x2 = 0.547): 0.29 ± 0.03 mPa·s; viscosity ([2]; 422.5 K, x2 = 0.588): 0.27 ± 0.03 mPa·s; mass density ([2]; 422.5 K, x2 = 0.547): 624 ± 2 kg/m3; mass density ([2]; 422.5 K, x2 = 0.588): 613 ± 2 kg/m3; viscosity ([2]; 422.6 K, x2 = 0.096): 0.55 ± 0.06 mPa·s; viscosity ([2]; 422.6 K, x2 = 0.194): 0.49 ± 0.05 mPa·s; viscosity ([2]; 422.6 K, x2 = 0.296): 0.43 ± 0.04 mPa·s; viscosity ([2]; 422.6 K, x2 = 0.365): 0.4 ± 0.04 mPa·s; viscosity ([2]; 422.6 K, x2 = 0.427): 0.37 ± 0.04 mPa·s; viscosity ([2]; 422.6 K, x2 = 0.477): 0.33 ± 0.03 mPa·s; mass density ([2]; 422.6 K, x2 = 0.096): 688 ± 2 kg/m3; mass density ([2]; 422.6 K, x2 = 0.194): 679 ± 2 kg/m3; mass density ([2]; 422.6 K, x2 = 0.296): 667 ± 2 kg/m3; mass density ([2]; 422.6 K, x2 = 0.365): 659 ± 2 kg/m3; mass density ([2]; 422.6 K, x2 = 0.427): 648 ± 2 kg/m3; mass density ([2]; 422.6 K, x2 = 0.477): 640 ± 2 kg/m3
